In article PMC9230784, “Development of a Novel Class of Pyridazinone Derivatives as Selective MAO-B Inhibitors” (Molecules, 2022):
Entries after “also recorded” stand apart in the source; their conditions may differ. Where two headings read alike, the source gives them in different places.

Columns and labels:
MAO-B [1] = target: T1, MAO-B (Homo sapiens, UniProt P27338); experiment: biochemical; format: biochemical; conditions: for remaining activity at 10 µM: 10 µM compound, mean ± standard error of duplicate or triple studies, read-out: Residual Activity at 10 µM (%) MAO-B; for SI (selectivity index for MAO-B compared with MAO-A): MAO-B versus MAO-A
T1 construct: purchased Sigma-Aldrich (St. Louis, MO, USA)
T1 sequence (P27338 1-520): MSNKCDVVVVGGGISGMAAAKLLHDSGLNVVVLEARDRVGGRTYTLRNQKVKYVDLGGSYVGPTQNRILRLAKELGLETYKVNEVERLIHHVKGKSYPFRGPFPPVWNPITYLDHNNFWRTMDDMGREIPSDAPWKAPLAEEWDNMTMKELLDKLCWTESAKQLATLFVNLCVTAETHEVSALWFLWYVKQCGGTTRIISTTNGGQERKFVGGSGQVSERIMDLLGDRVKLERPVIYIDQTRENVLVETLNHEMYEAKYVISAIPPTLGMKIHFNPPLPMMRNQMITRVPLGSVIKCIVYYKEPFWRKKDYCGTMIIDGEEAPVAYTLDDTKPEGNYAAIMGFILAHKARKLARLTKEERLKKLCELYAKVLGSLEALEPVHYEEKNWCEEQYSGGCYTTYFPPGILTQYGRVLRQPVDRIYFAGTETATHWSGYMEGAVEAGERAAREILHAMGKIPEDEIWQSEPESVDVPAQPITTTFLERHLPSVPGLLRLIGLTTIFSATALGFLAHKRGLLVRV
Protocol: The IC50 values were determined by measuring the residual activity at different concentrations of the compounds and by using GraphPad Prism software 5.0. […] BACE1 inhibitory activities were tested by the BACE1 activity detection kit. The assay method was described previously. Recombinant human MAO-A and MAO-B, AChE from Electrophorus electricus, BChE from equine serum, BACE1, and their substrates and reference inhibitors were purchased from Sigma-Aldrich (St. Louis, MO, USA). […]

Recombinant human MAO-A = target: T2, Recombinant human MAO-A (Homo sapiens, UniProt P21397); experiment: biochemical; conditions: for remaining activity at 10 µM: 10 µM compound, mean ± standard error of duplicate or triple studies, read-out: Residual Activity at 10 µM (%) MAO-A
T2 construct: purchased Sigma-Aldrich (St. Louis, MO, USA)
T2 sequence (P21397 1-527): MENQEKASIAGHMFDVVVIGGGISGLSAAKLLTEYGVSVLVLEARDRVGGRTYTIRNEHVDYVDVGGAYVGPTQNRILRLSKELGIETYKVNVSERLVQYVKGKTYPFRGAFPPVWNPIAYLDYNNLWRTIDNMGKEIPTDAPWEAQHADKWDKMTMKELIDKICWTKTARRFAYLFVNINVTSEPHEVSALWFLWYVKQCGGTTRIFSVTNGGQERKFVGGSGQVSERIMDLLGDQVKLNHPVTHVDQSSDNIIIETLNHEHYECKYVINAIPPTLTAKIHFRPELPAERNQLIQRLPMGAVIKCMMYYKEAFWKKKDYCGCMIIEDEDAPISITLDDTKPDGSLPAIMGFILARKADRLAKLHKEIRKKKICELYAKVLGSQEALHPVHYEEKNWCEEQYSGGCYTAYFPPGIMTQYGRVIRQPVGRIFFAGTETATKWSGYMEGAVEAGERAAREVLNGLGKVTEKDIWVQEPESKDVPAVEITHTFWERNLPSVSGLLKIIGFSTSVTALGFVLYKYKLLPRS
Protocol: The IC50 values were determined by measuring the residual activity at different concentrations of the compounds and by using GraphPad Prism software 5.0. […] BACE1 inhibitory activities were tested by the BACE1 activity detection kit. The assay method was described previously. Recombinant human MAO-A and MAO-B, AChE from Electrophorus electricus, BChE from equine serum, BACE1, and their substrates and reference inhibitors were purchased from Sigma-Aldrich (St. Louis, MO, USA).
(§1) Lineweaver–Burk plots were used to examine the inhibition patterns, and secondary plots were used to calculate the Ki values with three inhibitor dosages.

[2] = for Prediction (BBB permeation class): PAMPA-BBB; for BBB permeation in words: PAMPA
[3] = PAMPA-BBB; cited from earlier work
MAO-B [4] = target: T1, MAO-B; experiment: Inhibition reversibility by dialysis; format: biochemical; conditions: for Reversibility of MAO-B inhibition: dialysis, AU versus AD; for Relative activity of dialyzed (AD) sample / Relative activity of undialyzed (AU) sample: preincubation 30 min at ~2 × IC50
From the text: The relative activity of undialyzed (AU) as well as dialyzed (AD) samples were compared to establish reversibility profiles.
To determine reversibility patterns, the activities of dialyzed (AD) and undialyzed (AU) specimens were compared.

in vitro = conditions: PAMPA
MAO-B [5] = target: T1, MAO-B; experiment: Kinetic study, Lineweaver–Burk and secondary plots; format: biochemical; conditions: for Inhibition type for MAO-B: Lineweaver–Burk plots
From the text: Five different substrate concentrations were used in the kinetics.
as §1

[6] = benzylamine 0.3 mM, highest concentration 40 µM, read-out: IC50 (µM) MAO-B
[7] = kynuramine 0.06 mM, highest concentration 40 µM, read-out: IC50 (µM) MAO-A

SMILES | remaining activity at 10 µM (MAO-B [1]) | SI (selectivity index for MAO-B compared with MAO-A) (MAO-B [1]) | IC50 (MAO-B [1]; [6]) | remaining activity at 10 µM (Recombinant human MAO-A) | IC50 (Recombinant human MAO-A; [7]) | also measured
O=C(Cn1nc(N2CCN(c3cccc(C(F)(F)F)c3)CC2)ccc1=O)NN=Cc1ccc(F)cc1 [TR9] | 46.5 ± 4.93% | 17.08 | 1 ± 0.15 µM | 72.28 ± 0.4% | 17.1 ± 0.21 µM | 
COc1cccc(N2CCN(c3ccc(=O)n(CC(=O)NN=Cc4ccc(F)cc4)n3)CC2)c1 [TR3] | 20.1 ± 1.15% | 9.31 | 2.11 ± 0.51 µM | 71.66 ± 0.71% | 19.7 ± 0.3 µM | 
COc1ccc(C=NNC(=O)Cn2nc(N3CCN(c4cccc(OC)c4)CC3)ccc2=O)cc1 [TR4] | 88.6 ± 8.61% | <0.41 | > 40 µM | 61 ± 3.54% | 16.5 ± 1.66 µM | 
O=C(Cn1nc(N2CCN(c3cccc(C(F)(F)F)c3)CC2)ccc1=O)NN=Cc1ccc(Br)cc1 [TR13] | 100 ± 5.43% | <0.78 | > 40 µM | 74.2 ± 6.43% | 31 ± 4.33 µM | 
NCCc1ccc(O)c(O)c1 [Dopamine, reference compound] |  |  |  |  |  | Prediction (BBB permeation class) [2]: CNS- (CNS-: Pe (10^−6 cm/s) <2, less BBB permeable); Bibliography Pe (×10^−6 cm/s) [3]: 0.2 ×10^−6 cm/s
COc1ccc(C=NNC(=O)Cn2nc(N3CCN(c4cccc(C(F)(F)F)c4)CC3)ccc2=O)cc1 [TR10] | 91.9 ± 7.09% | <0.33 | > 40 µM | 56 ± 2.26% | 13.3 ± 1.81 µM | 
CCn1cc(C(=O)O)c(=O)c2cc(F)c(N3CCNC(C)C3)c(F)c21 (stereo not shown) [Lomefloxacin, reference compound] |  |  |  |  |  | Prediction (BBB permeation class) [2]: CNS- (CNS-: Pe (10^−6 cm/s) <2, less BBB permeable)
COc1cccc(N2CCN(c3ccc(=O)n(CC(=O)NN=Cc4ccc(Br)cc4)n3)CC2)c1 [TR6] | 70.2 ± 3.8% | 0.81 | 15.1 ± 0.18 µM | 51.7 ± 4.55% | 12.33 ± 0.11 µM | 
CN(C)c1ccc(C=NNC(=O)Cn2nc(N3CCN(c4cccc(C(F)(F)F)c4)CC3)ccc2=O)cc1 [TR12] | 85.3 ± 1.59% | <0.37 | > 40 µM | 52.5 ± 1.77% | 14.7 ± 2.96 µM | 
O=C(Cn1nc(N2CCN(c3cccc(C(F)(F)F)c3)CC2)ccc1=O)NN=Cc1ccc(Cl)cc1 [TR8] | 69.1 ± 0.95% | 0.60 | 20 µM | 52.9 ± 0.82% | 12 ± 1.75 µM | 
O=C(Cn1nc(N2CCOCC2)ccc1=O)NN=Cc1ccc(F)cc1 [TR15] | 12.5 ± 3.54% |  |  | 85.6 ± 1.04% |  | IC50 (MAO-B [1]): 0.43 ± 0.05 µM; IC50 (Recombinant human MAO-A): > 40 µM
COc1cccc(N2CCN(c3ccc(=O)n(CC(=O)NN=Cc4ccc(C)cc4)n3)CC2)c1 [TR5] | 45.6 ± 2.56% | 4.12 | 4.42 ± 0.23 µM | 72.8 ± 1.02% | 18.19 ± 0.09 µM | 
O=C(Cn1nc(N2CCOCC2)ccc1=O)NN=Cc1ccccc1 [TR14] | 107 ± 2.01% |  | > 40 µM | 97.47 ± 0.71% | > 40 µM | 
O=C(Cn1nc(N2CCN(c3cccc(C(F)(F)F)c3)CC2)ccc1=O)NN=Cc1ccccc1 [TR7] | 90.7 ± 6.64% | <0.36 | > 40 µM | 55.4 ± 0.84% | 14.4 ± 3.55 µM | 
COc1cccc(N2CCN(c3ccc(=O)n(CC(=O)NN=Cc4ccccc4)n3)CC2)c1 [TR1] | 80.5 ± 1.01% | <0.43 | > 40 µM | 82 ± 1.2% | 17.3 ± 1.2 µM | 
COc1cccc(N2CCN(c3ccc(=O)n(CC(=O)NN=Cc4ccc(Cl)cc4)n3)CC2)c1 [TR2] | -4.37 ± 4.13% |  |  | 65.8 ± 0.66% |  | BBB permeation in words [2]: tendency to traverse the blood–brain barrier; also recorded: good CNS permeabilities; Prediction (BBB permeation class) [2]: CNS+ (CNS+, Pe (10^−6 cm/s) >4, good BBB permeable); IC50 (MAO-B [1]): 0.27 ± 0.02 µM; Fold increase of MAO-B inhibitory potency compared to the basic structure TR1 (MAO-B [1]; versus TR1): 148.1 fold; Reversibility of MAO-B inhibition (MAO-B [4]): reversible inhibitors; Relative activity of dialyzed (AD) sample (MAO-B [4]): 75.0%; Relative activity of undialyzed (AU) sample (MAO-B [4]): 28.0%; IC50 (Recombinant human MAO-A): 22.9 ± 0.24 µM; Papp (in vitro): 9.33 ± 0.33 ×10⁻⁶ cm/s; Ki (MAO-B [5]): 0.23 ± 0.004 µM; Inhibition type for MAO-B (MAO-B [5]): competitive inhibitors
Cc1ccc(C=NNC(=O)Cn2nc(N3CCN(c4cccc(C(F)(F)F)c4)CC3)ccc2=O)cc1 [TR11] | 83.87 ± 0.56% | 0.57 | 32 ± 1.21 µM | 55.6 ± 2.28% | 18.5 ± 5.83 µM | 
O=C(Cn1nc(N2CCOCC2)ccc1=O)NN=Cc1ccc(Cl)cc1 [TR16] | 13.1 ± 0.64% |  |  | 85 ± 3.08% |  | BBB permeation in words [2]: tendency to traverse the blood–brain barrier; also recorded: good CNS permeabilities; Prediction (BBB permeation class) [2]: CNS+ (CNS+, Pe (10^−6 cm/s) >4, good BBB permeable); IC50 (MAO-B [1]): 0.17 ± 0.04 µM; Fold higher IC50 for MAO-B than TR2 (MAO-B [1]; versus TR2): 1.59 fold; Times higher MAO-B inhibitory activity over the basic structure TR14 (MAO-B [1]; versus TR14): 235.3 times; Times higher MAO-B inhibitory activity over TR15 (MAO-B [1]; versus TR15): 2.5 times; Reversibility of MAO-B inhibition (MAO-B [4]): reversible inhibitors; Relative activity of dialyzed (AD) sample (MAO-B [4]): 73.4%; Relative activity of undialyzed (AU) sample (MAO-B [4]): 31.8%; IC50 (Recombinant human MAO-A): > 40 µM; Papp (in vitro): 10.6 ± 0.26 ×10⁻⁶ cm/s; Ki (MAO-B [5]): 0.149 ± 0.016 µM; Inhibition type for MAO-B (MAO-B [5]): competitive inhibitors
CC(=O)[C@H]1CC[C@H]2[C@@H]3CCC4=CC(=O)CC[C@]4(C)[C@H]3CC[C@]12C [Progesterone, reference compound] |  |  |  |  |  | Prediction (BBB permeation class) [2]: CNS+ (CNS+, Pe (10^−6 cm/s) >4, good BBB permeable)
